These results are taken from patent US10966994B2, “Thromboxane receptor antagonists” (ATXA THERAPEUTICS LIMITED, priority 2015, dated 2021).

One series concerns the target T1, TP (Homo sapiens, UniProt P21731).
T1 construct: CEREP
T1 sequence (P21731 1-343): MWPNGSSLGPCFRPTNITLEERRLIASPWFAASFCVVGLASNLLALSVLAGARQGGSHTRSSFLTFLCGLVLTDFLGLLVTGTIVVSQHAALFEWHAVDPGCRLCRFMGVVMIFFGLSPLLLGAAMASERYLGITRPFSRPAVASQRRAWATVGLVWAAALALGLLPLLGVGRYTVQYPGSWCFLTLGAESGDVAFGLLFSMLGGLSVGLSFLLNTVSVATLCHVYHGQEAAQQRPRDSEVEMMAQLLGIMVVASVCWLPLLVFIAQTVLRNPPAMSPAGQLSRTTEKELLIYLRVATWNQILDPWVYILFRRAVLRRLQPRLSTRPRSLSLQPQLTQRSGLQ
Briefly: U44069-mediated [Ca2+]i mobilization (CEREP). It counts as cell-based. To be noted: CEREP assay, agonist U44069; read-out: IC50 Value for Inhibition of U44069-Mediated [Ca2+]i Mobilization. From the text: FIG. 18 presents the effect of NTP42 and NTP48 on TP- or U44069-mediated signaling (CEREP use the related U44069 rather than U46619), including IC50 values for inhibition (see also Table 4). Those effects indicate that NTP42 & NTP48 are potent antagonists of U46609 or TP. The differences in IC50 values may be attributed to the differences in the particular conditions of the assay, including differences in cell type, agonist, calcium indicator, etc.
Table 4 is an example of the IC50 values of NTP42 and NTP48 to antagonize TP-mediated [Ca^2+]i mobilization following stimulation of cells with the alternative TP agonist […].

A further series is described as follows: Cell permeability. In kind it is in vitro ADME.
Another series addresses T2, TPα (Homo sapiens, UniProt P21731).
T2 construct: expressed in transfected cells; host or cells: HEK 293 (HEK.TPα, isolate HR #4)
T2 sequence (P21731 1-343): T1 sequence (P21731 1-343)
Nature of the series: U46619-mediated calcium mobilization in HEK.TPα cells. In kind it is cell-based. Conditions: for IC50: 1 μM U46619, estimated IC50, mean ± S.E.M., read-out: IC50 values for Inhibition of U46619-Mediated [Ca2+]i Mobilisation, TPα; for inhibition of U46619-mediated calcium mobilization, TPα (in words): 1 μM U46619. How it is done:
NTP42-NTP49, northern group variants of NTP4, were assessed through calcium mobilization assays using proprietary HEK 293 cells over-expressing the thromboxane (TX)A2 receptor, α (TPα) and β (TPβ) isoforms, referred to as HEK.TPα and HEK.TPβ cells, respectively. The initial screening involved dose-responses assays (concentrations used 0.0001 (TPβ only), 0.001, 0.1, 1 & 10 μM; (TPα and TPβ)) followed by more focused, full dose response assays (concentration range: 0.00001 to 10 μM) for determination of IC50 values where the effect of the compounds on calcium mobilized in response to the TXA2 mimetic U46619 (1 μM) were performed in side-by-side comparison with the key lead compounds TP20 and NTP4.
As stated, NTP42-NTP49 were screened through calcium mobilization assays using HEK.TPα and HEK.TPβ cells over-expressing the thromboxane (TX)A2 receptor, α (TPα) and β (TPβ) isoforms, respectively. The initial screening involved dose-response assays where the compounds, used at 0.0001 (TPβ only), 0.001, 0.1, 1 & 10 μM (TPα and TPβ), were assessed for their ability to inhibit the TXA2 mimetic U46619 (1 μM). The compounds were tested in side-by-side assays with the previously identified key lead compounds TP20 and NTP4.
HEK.TPα (HR #4) cells, preloaded with Fluo-4, were incubated with the TP20, NTP4, NTP42, NTP43, NTP44, NTP45, NTP47, NTP48 & NTP49 where each antagonist was used at 0.001, 0.1, 1 & to 10 μM, as indicated, prior to stimulation with 1 μM U46619. Data is presented as the mean (±S.E.M.) percentage of the agonist-induced response in vehicle-treated cells (Percentage of Control; %) and represents data from at least 4 independent experiments were cells were treated in duplicate.
HEK.TPα (HR #4) cells, preloaded with Fluo-4, were incubated with the TP20, NTP4, NTP42, NTP43 and NTP48 where each antagonist was used at 0.00001-10 μM, as indicated, prior to stimulation with 1 μM U46619. Data is presented as the mean (±S.E.M.) percentage of the agonist induced response in vehicle-treated cells (Percentage of Control; %) and represents data from at least 3 independent experiments were cells were treated in duplicate.

For series [1], the target named is T3, thrombin (PAR1) receptors (Homo sapiens, UniProt P25116).
T3 sequence (P25116 22-425): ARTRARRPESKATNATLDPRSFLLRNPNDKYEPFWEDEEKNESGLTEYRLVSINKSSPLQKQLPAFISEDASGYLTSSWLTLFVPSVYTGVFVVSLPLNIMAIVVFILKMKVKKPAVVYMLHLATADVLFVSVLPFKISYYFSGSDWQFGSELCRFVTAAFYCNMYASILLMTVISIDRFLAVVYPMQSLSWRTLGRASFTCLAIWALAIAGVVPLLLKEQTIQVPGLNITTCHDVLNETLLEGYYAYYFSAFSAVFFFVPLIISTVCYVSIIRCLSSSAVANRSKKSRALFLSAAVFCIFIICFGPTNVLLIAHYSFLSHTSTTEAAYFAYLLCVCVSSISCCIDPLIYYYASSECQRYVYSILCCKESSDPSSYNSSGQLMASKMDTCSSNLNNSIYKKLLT
Nature of the series: Specificity testing, thrombin (PAR1) receptor signaling.

For another series, the target named is T4, EP1 receptor (Homo sapiens, UniProt P34995).
T4 sequence (P34995 1-402): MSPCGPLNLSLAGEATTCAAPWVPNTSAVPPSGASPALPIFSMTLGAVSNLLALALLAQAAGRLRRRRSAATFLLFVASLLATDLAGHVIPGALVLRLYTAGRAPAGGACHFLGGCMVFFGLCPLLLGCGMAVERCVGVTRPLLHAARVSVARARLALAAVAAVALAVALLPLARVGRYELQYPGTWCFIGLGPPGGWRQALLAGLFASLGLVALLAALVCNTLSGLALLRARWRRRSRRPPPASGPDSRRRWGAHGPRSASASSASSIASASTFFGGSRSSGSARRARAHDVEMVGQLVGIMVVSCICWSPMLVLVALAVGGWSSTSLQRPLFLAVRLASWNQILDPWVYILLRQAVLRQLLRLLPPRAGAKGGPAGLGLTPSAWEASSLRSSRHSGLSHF
Nature of the series: Specificity testing, EP1 receptor signaling. In kind it is cell-based. The protocol: There is no or minimal inhibition of the majority of the non-TP-mediated signaling observed in the presence of either NTP42 & NTP48. Where there is inhibition of signaling, it is observed at the 10 μM concentration only. […] Compared to NTP42, NTP48 has less of an effect on the signaling of the non-TP prostanoid receptors and therefore, may be considered more favorable in this context.

For orientation: IC50 means the concentration needed to halve the response being measured. In the case of `CC(C)(C)NC(=O)NS(=O)(=O)c1cc(C#N)ccc1Oc1cccc(-c2ccc(OC(F)F)cc2)c1` [NTP42], the IC50 at TP was 0.00328 ± 0.00034 µM; on TPα, 0.0562 ± 0.00484 µM. For the same molecule, the cell permeability entry in “Cell permeability” is listed as “favorable cell permeability”. In series [1], the “effect on signaling through thrombin (PAR1) receptors” value (“effect on signaling through thrombin” for short) is on record as “neither NTP42, NTP43 nor NTP48 exhibited any effect”. Also, at EP1 receptor, the “effect on the EP1 receptor” value is recorded as “no effect”. Also, the “percentage reduction in responses, EP1” value on EP1 receptor (maximal inhibition, at 10 μM only) is given as approximately 55%.
As to `COc1ccc(-c2cccc(Oc3ccc([N+](=O)[O-])cc3S(=O)(=O)NC(=O)NC(C)(C)C)c2)cc1` [TP20, reference compound], at TPα, the “inhibition of U46619-mediated calcium mobilization, TPα (in words)” value is “potently inhibited” and the IC50 is 0.125 ± 0.0114 µM. Also, the “effect on signaling through thrombin” value in series [1] was “like TP20 and NTP4, neither NTP42, NTP43 nor NTP48 exhibited any effect”. At EP1 receptor, the “effect on the EP1 receptor” value was “like TP20 and NTP4, neither NTP42, NTP43 nor NTP48 exhibited any effect”.
For the molecule `CC(C)(C)NC(=O)NS(=O)(=O)c1cc(C#N)ccc1Oc1cccc(-c2ccc(OC(F)(F)F)cc2)c1` [NTP43], the cell permeability entry in the series “Cell permeability” is “favorable cell permeability”. Further, the IC50 at TPα is 0.105 ± 0.00795 µM. In addition, in series [1], the “effect on signaling through thrombin” value is on record as “neither NTP42, NTP43 nor NTP48 exhibited any effect”. In addition, the “effect on the EP1 receptor” value on EP1 receptor was “not to exhibit any effect”.
Turning to `CN(C)C(=O)c1ccc(-c2cccc(Oc3ccc(C#N)cc3S(=O)(=O)NC(=O)NC(C)(C)C)c2)cc1` [NTP48, 4-[3-[2-(tert-Butylcarbamoylsulfamoyl)-4-cyano-phenoxy]phenyl]-N,N-dimethyl-benzamide], the concentration for half-maximal inhibition (IC50) is 0.00771 ± 0.00096 µM on TP and 0.0901 ± 0.00643 µM on TPα. For the same molecule, the cell permeability entry in the series “Cell permeability” is listed as “favorable cell permeability”. The “effect on signaling through thrombin” value in series [1] is reported as “neither NTP42, NTP43 nor NTP48 exhibited any effect”. The “effect on the EP1 receptor” value at EP1 receptor is on record as “no effect”.
With `COc1ccc(-c2cccc(Oc3ccc(C#N)cc3S(=O)(=O)NC(=O)NC(C)(C)C)c2)cc1` [NTP4, reference compound], on TPα, the “inhibition of U46619-mediated calcium mobilization, TPα (in words)” value is “potently inhibited”. The “effect on signaling through thrombin” value in series [1] is “like TP20 and NTP4, neither NTP42, NTP43 nor NTP48 exhibited any effect”. Moreover, at EP1 receptor, the “effect on the EP1 receptor” value is “like TP20 and NTP4, neither NTP42, NTP43 nor NTP48 exhibited any effect”.
